# Values of other authors in paper PMC10281575, “PfCRT mutations conferring piperaquine resistance in falciparum malaria shape the kinetics of quinoline drug binding and transport” (PLOS Pathogens, 2023).
# How the values were obtained:
# Dd2^Dd2crt parasites = test system: Dd2^Dd2crt parasites; design: method as in Okombo et al. (2022); details: ref Okombo et al. (2022); cited from earlier work
# Dd2^3D7crt parasites = test system: Dd2^3D7crt parasites; design: method as in Okombo et al. (2022); details: ref Okombo et al. (2022); cited from earlier work
compound,measurement,setting,value
"Clc1ccc2c(N3CCN(CCCN4CCN(c5ccnc6cc(Cl)ccc56)CC4)CC3)ccnc2c1 [PPQ, piperaquine]",drug accumulation ratio,Dd2^Dd2crt parasites,1900 fold
same,drug accumulation ratio,Dd2^3D7crt parasites,2000 fold
